Experimental data taken from PubChem BioAssay (NCI).
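The concentration for 50% growth inhibition is given as GI50. TGI marks complete inhibition of growth.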

Key:
Assay in all cases: NCI tumour cell line growth inhibition, 384-well format
[1] = test system: SF-539 CNS
[2] = test system: SK-OV-3 ovarian
[3] = test system: NCI-H23 lung
[4] = test system: SF-295 CNS
[5] = test system: HCC-2998 colon
[6] = test system: HL-60(TB) leukemia
[7] = test system: A498 renal
[8] = test system: SN12C renal
[9] = test system: LOX IMVI melanoma
[10] = test system: HCT-116 colon
[11] = test system: HCT-15 colon
[12] = test system: COLO 205 colon
[13] = test system: SF-268 CNS
[14] = test system: NCI-H226 lung
[15] = test system: NCI-H522 lung
[16] = test system: HOP-92 NSCLC
[17] = test system: SNB-19 CNS
[18] = test system: NCI-H460 NSCLC
[19] = test system: RPMI-8226 leukemia
[20] = test system: KM12 colon
[21] = test system: HS 578T breast
[22] = test system: MDA-MB-468 breast
[23] = test system: RXF 393 renal
[24] = test system: OVCAR-3 ovarian
[25] = test system: BT-549 breast
[26] = test system: MDA-MB-435 melanoma
[27] = test system: SNB-75 CNS
[28] = test system: NCI/ADR-RES ovarian
[29] = test system: SK-MEL-28 melanoma
[30] = test system: PC-3 prostate
[31] = test system: ACHN renal
[32] = test system: OVCAR-8 ovarian
[33] = test system: MOLT-4 leukemia
[34] = test system: SK-MEL-2 melanoma
[35] = test system: U251 glioblastoma
[36] = test system: TK-10 renal
[37] = test system: NCI-H322M lung
[38] = test system: SW-620 colon
[39] = test system: M14 melanoma
[40] = test system: CCRF-CEM leukemia
[41] = test system: SR leukemia
[42] = test system: SK-MEL-5 melanoma
[43] = test system: UO-31 renal
[44] = test system: OVCAR-4 ovarian
[45] = test system: DU-145 prostate
[46] = test system: MDA-MB-231 breast
[47] = test system: UACC-257 melanoma

SMILES: O=S(=O)(c1ccc2c(c1)C(=NO)c1cc(S(=O)(=O)N3CCCCC3)ccc1-2)N1CCCCC1
- GI50 [1]: 174 nM
- TGI [1]: 317 nM
- GI50 [2]: 169 nM
- TGI [2]: 308 nM
- GI50 [3]: 92.7 nM
- TGI [3]: 228 nM
- GI50 [4]: 176 nM
- TGI [4]: 316 nM
- GI50 [5]: 166 nM
- TGI [5]: 303 nM
- GI50 [6]: 16.9 nM
- TGI [6]: 30.9 nM
- GI50 [7]: 1490 nM
- TGI [7]: 3100 nM
- GI50 [8]: 181 nM
- TGI [8]: 323 nM
- GI50 [9]: 17.2 nM
- TGI [9]: 32 nM
- GI50 [10]: 173 nM
- TGI [10]: 316 nM
- GI50 [11]: 186 nM
- TGI [11]: 333 nM
- GI50 [12]: 184 nM
- TGI [12]: 325 nM
- GI50 [13]: 165 nM
- TGI [13]: 303 nM
- GI50 [14]: 168 nM
- TGI [14]: 309 nM
- GI50 [15]: 172 nM
- TGI [15]: 314 nM
- GI50 [16]: 116 nM
- TGI [16]: 242 nM
- GI50 [17]: 189 nM
- TGI [17]: 332 nM
- GI50 [18]: 170 nM
- TGI [18]: 314 nM
- GI50 [19]: 106 nM
- TGI [19]: 226 nM
- GI50 [20]: 177 nM
- TGI [20]: 329 nM
- GI50 [21]: 175 nM
- TGI [21]: 314 nM
- GI50 [22]: 58.4 nM
- TGI [22]: 171 nM
- GI50 [23]: 118 nM
- TGI [23]: 242 nM
- GI50 [24]: 146 nM
- TGI [24]: 281 nM
- GI50 [25]: 179 nM
- TGI [25]: 319 nM
- GI50 [26]: 183 nM
- TGI [26]: 323 nM
- GI50 [27]: 184 nM
- TGI [27]: 324 nM
- GI50 [28]: 342 nM
- TGI [28]: 1140 nM
- GI50 [29]: 171 nM
- TGI [29]: 309 nM
- GI50 [30]: 165 nM
- TGI [30]: 303 nM
- GI50 [31]: 17.6 nM
- TGI [31]: 31.6 nM
- GI50 [32]: 153 nM
- TGI [32]: 288 nM
- GI50 [33]: 168 nM
- TGI [33]: 306 nM
- GI50 [34]: 196 nM
- TGI [34]: 339 nM
- GI50 [35]: 189 nM
- TGI [35]: 341 nM
- GI50 [36]: 187 nM
- TGI [36]: 336 nM
- GI50 [37]: 178 nM
- TGI [37]: 320 nM
- GI50 [38]: 182 nM
- TGI [38]: 323 nM
- GI50 [39]: 170 nM
- TGI [39]: 308 nM
- GI50 [40]: 82.5 nM
- TGI [40]: 205 nM
- GI50 [41]: 158 nM
- TGI [41]: 294 nM
- GI50 [42]: 184 nM
- TGI [42]: 359 nM
- GI50 [43]: 16 nM
- TGI [43]: 29.8 nM
- GI50 [44]: 17.9 nM
- TGI [44]: 34.4 nM
- GI50 [45]: 177 nM
- TGI [45]: 318 nM
- GI50 [46]: 139 nM
- TGI [46]: 270 nM
- GI50 [47]: 180 nM
- TGI [47]: 320 nM
